Experimental data from patent US6376753B1, “PURIFIED CYTOCHROME P450 POLYPEPTIDE CYP76B1 FROM HELIANTHUS TUBEROSUS AND ITS APPLICATIONS AS BIOCATALYST IN PARTICULAR FOR THE DEGRADATION OF ENVIRONMENTAL POLLUTANTS AND FOR ALTERING THE RESISTANCE OF PLANTS SENSITIVE TO PHENYLUREA FAMILY OF HERBICIDES” (priority 1997, dated 2002).

Test system: tobacco transformed with CYP76B1
Test: Leaf pieces of tobacco transformed with CYP76B1 aged on herbicide medium
Format: cell-based
Settings: 10 days on MS medium containing 0.5 μM linuron; versus empty plasmid
Experimental: FIG. 15 : Leaf pieces from tobacco transformed with CYP76B1 (left) or with an empty plasmid (right) were aged for 10 days on Murashige and Skoog (MS) medium containing 0.5 μM linuron.
The CYP76B1 cDNA was inserted in vector pBDX (Gachotte D., 1995). The resulting vector was mobilized into Agrobacterium tumefaciens strain LBA4404 by triparental mating (Ditta G. et al., 1980). Plant transformation was realized according to Horsch et al. (1985): tobacco leaf disks were soaked for 10 minutes in an Agrobacterium solution, blotted dry and placed on MS callus-inducing medium containing 500 μg/ml cefotaxime and 100 μg/ml kanamycin. After four to six weeks, shoots were transferred on MS-rooting medium containing 100 μg/ml cefotaxime and 100 μg/ml kanamycin. After rooting, plants were transferred in soil.

Compound: CON(C)C(=O)Nc1ccc(Cl)c(Cl)c1 [linuron]
- chlorophyll destruction in leaf pieces: avoids chrorophyll destruction
